The structures appear in SMILES notation. Several values for one entry are separate records, joined by “and”; a condition that tells them apart may be missing. Equal values may be shown once.

The source of these data is PubChem BioAssay AID2060615 (Molecular Pharmacology Branch, DTP, NCI, 2025).

The test system of the assay is 496974-208-R-J2-PDC complex spheroids, growth % test/control. Kind of assay: Anticancer human tumor 496974-208-R-J2-PDC patient-derived pancreatic carcinoma cell line growth inhibition [CLK]. Conditions: for viability, T/C: stronger effect = lower value; for IC50: curve of compound. The source says:
A high-throughput screen of multi-cell type tumor spheroids was designed to identify active combinations of […] and targeted small molecules. Complex spheroids include a stromal component modeled by human endothelial cells (HUVEC) and fibroblasts modeled by human mesenchymal stem cells (MSCs). The concentration ranges selected for each drug and investigational agent were based upon clinically achievable concentrations if the clinical Cmax of the agent was known.
Compounds. The drugs and investigational agents: cirtuvivint (SM08502; NSC835563), CC-671 (NSC850746), vemurafenib (NSC761431), tapotoclax (NSC804041), sotorasib (NSC818433), adagrasib (NSC831453), MRTX-1133 (NSC836407), BAY2416964 (NSC825713), copanlisib (NSC816437), inavolisib (NSC800729), abemaciclib (NSC768073), osimertinib (NSC779217), entinostat (NSC756642), eltanexor (KPT-8602, NSC794443), venetoclax (NSC766270), ceralasertib (NSC777638), bortezomib (NSC756655), olaparib (NSC753686), talazoparib (NSC767125), alisertib (NSC759677), peposertib (NSC802822), gemcitabine (NSC613327), 5-fluorouracil (NSC19893), SN-38 (NSC673596), oxaliplatin (NSC266046), paclitaxel (NSC125973), and doxorubicin (NSC123127), were obtained from the National Cancer Institute (NCI) Developmental Therapeutics Program Chemical Repository. The FDA-approved anticancer drug set is available from the Developmental Therapeutics Program at https://dtp.cancer.gov/organization/dscb/obtaining/available plates.htm. […] The stock solutions were prepared in dimethyl sulfoxide (DMSO, Sigma-Aldrich, St. Louis, MO, cat. D2650), except for the platinum complexes which were prepared in saline (Quality Biological, Gaithersburg, MD, cat. 114-055-101), at 800-fold the tested concentration and stored at -70 degrees C prior to their use. All drugs and investigational agents were tested over a range starting from a high concentration at or near the clinical Cmax and decreasing in half-log increments. If the clinical Cmax for an agent had not been determined, the highest concentration tested was 10 microM.
Cell Culture. All cells were maintained in an incubator at 37 degrees C and 5% CO2 with 95% humidity. The PDC lines were cultured according to standard operating procedures established by the NCI PDMR. Briefly, all PDCs were thawed and cultured in Matrigel-coated flasks prepared with a working solution of 1X Ham's F-12 nutrient mix, without supplementation (Invitrogen, Waltham, MA, cat. 11765054), 100 U/mL penicillin-streptomycin (Invitrogen, cat. 15140122), and 2.5% Matrigel (Corning Inc., Corning, NY, cat. 354248) for the first three passages. The 947758-054-R-J2-PDC line was cultured in 6B/Colon 1A media, which includes advanced DMEM/F-12 (Thermo Fisher Scientific, cat. 12634028), 10 mM HEPES (Thermo Fisher Scientific, cat. 15630080), 1X GlutaMAX supplement (Thermo Fisher Scientific, cat. 35050061), 0.1 mg/mL primocin (InvivoGen, cat. ant-pm-2), 10% defined fetal bovine serum, heat inactivated (HyClone Laboratories Inc., cat. SH30070.03HI), 1.25 mM N-Acetyl-L-cysteine (Sigma-Aldrich, cat. A9165), 10 mM nicotinamide (Sigma-Aldrich, cat. N0636), 1X B-27 supplement (Thermo Fisher Scientific, cat. 17504044), 1X N-2 supplement (Thermo Fisher Scientific, cat. 17502048), and 10 microM Y-27632 dihydrochloride (Tocris Bioscience, cat. 1254). The 876862-298-R-J1-PDC was cultured in 6E media, which includes all 6B/Colon 1A media components plus 50% L-WRN conditioned media (ATCC, cat. CRL-3276), 50 ng/mL recombinant human EGF recombinant protein (hEGF; Thermo Fisher Scientific, cat. PHG0311), 10 ng/mL recombinant human fibroblast growth factor 10 (hGFG-10; PeproTech, cat. 100-26), 1 ng/mL recombinant human fibroblast growth factor 2 (hFGF-2; PeproTech, cat. 100-18B), and 1 µM prostaglandin E2 (PGE2; Tocris, cat. 2296). The 227483-062-R1-J1-PDC line was cultured in Panc media, containing all 6E components except hFGF-2, with the addition of 500 nM SB-431542 (Selleckchem, cat. S1067) and 10 nM gastrin (Tocris, cat. 3006). […]
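Note: spheroids exposed to the drugs for 7 days before readout.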
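Throughout, for viability, T/C: 100% = DMSO vehicle control wells.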

Consider `C#Cc1c(F)ccc2cc(O)cc(-c3ncc4c(N5CC6CCC(C5)N6)nc(OCC56CCCN5CC(F)C6)nc4c3F)c12` (centres undefined), for which the IC50 was 0.471 µM and 0.364 µM. The viability, T/C (compound 0.0316 µM) was 63.5% and 68.8%. Moreover, for the setting “compound 0.1 µM”, the viability, T/C is 57.4% and 58.6%. Where the note is “compound 0.316 µM”, the viability, T/C was 48.7% and 48%. Moreover, the viability, T/C (compound 1 µM) was 48.6% and 46.5%. Further, where the note is “compound 3.16 µM”, the viability, T/C was 44.9% and 50.8%. The viability, T/C (compound 10 µM) is 38% and 43.1%.

With `C=C(F)C(=O)N1CCN(c2nc(OCC3CCCN3C)nc3c2CCN(c2cccc4cccc(Cl)c24)C3)CC1CC#N` (centres undefined), the IC50 is 5.48 µM and 5.56 µM. In addition, the viability, T/C (compound 0.0316 µM) is 111% and 105%. In addition, the viability, T/C (compound 0.1 µM) is 108% and 95.4%. Further, where the note is “compound 0.316 µM”, the viability, T/C is 97% and 89.5%. The viability, T/C (compound 1 µM) was 95.8% and 87.1%. Further, the viability, T/C (compound 3.16 µM) was 93.5% and 98.2%. For the same compound, under “compound 10 µM”, the viability, T/C was 2.37% and 3.13%.

With `C=CC(=O)N1CCN(c2nc(=O)n(-c3c(C)ccnc3C(C)C)c3nc(-c4c(O)cccc4F)c(F)cc23)C(C)C1` (centres undefined), the IC50 is more than 10 µM. Further, the viability, T/C (compound 0.0316 µM) was 112% and 102%. Besides, the viability, T/C (compound 0.1 µM) was 108% and 87.1%. Moreover, the viability, T/C (compound 0.316 µM) was 109% and 91.7%. Further, where the note is “compound 1 µM”, the viability, T/C was 111% and 97.7%. Moreover, the viability, T/C (compound 3.16 µM) is 107% and 108%. For the setting “compound 10 µM”, the viability, T/C is 86.8% and 80.7%.

In the case of `CC(=O)O[C@H]1C(=O)[C@@]2(C)[C@H]([C@H](OC(=O)c3ccccc3)[C@]3(O)C[C@H](OC(=O)[C@H](O)[C@@H](NC(=O)c4ccccc4)c4ccccc4)C(C)=C1C3(C)C)[C@]1(OC(C)=O)CO[C@@H]1C[C@@H]2O`, the concentration for half-maximal inhibition (IC50) was less than 0.0316 µM. For the setting “compound 0.0316 µM”, the viability, T/C was 34.8%. Also, the viability, T/C (compound 0.1 µM) is 28.4%. Also, for the setting “compound 0.316 µM”, the viability, T/C is 30.7%. For the setting “compound 1 µM”, the viability, T/C was 27.8%. Besides, the viability, T/C (compound 3.16 µM) was 38.6%. Further, under “compound 10 µM”, the viability, T/C is 29.1%.

For the compound `CC(CO)NC(=O)c1cc(-c2ccc(Cl)cc2)nn(-c2cnn(C)c2)c1=O` (centres undefined), the IC50 is 8.39 µM and > 10 µM. Besides, for the setting “compound 0.0316 µM”, the viability, T/C was 106% and 99.5%. In addition, for the setting “compound 0.1 µM”, the viability, T/C was 105% and 97.1%. Also, the viability, T/C (compound 0.316 µM) is 96.2% and 100%. Also, the viability, T/C (compound 1 µM) was 85.5% and 96.2%. The viability, T/C (compound 3.16 µM) was 91.6% and 91.4%. The viability, T/C (compound 10 µM) is 42.6% and 52.9%.

Regarding `CC(Nc1ccc2c(c1)OCCn1cc(N3C(=O)OCC3C(F)F)nc1-2)C(N)=O` (centres undefined), the IC50 was 0.195 µM and 0.18 µM. In addition, the viability, T/C (compound 0.0316 µM) was 89.2% and 89.5%. For the same compound, the viability, T/C (compound 0.1 µM) is 65.6% and 63.4%. Moreover, for the setting “compound 0.316 µM”, the viability, T/C was 39.2% and 36.6%. In addition, the viability, T/C (compound 1 µM) is 18.8% and 22.9%. Further, the viability, T/C (compound 3.16 µM) is 13.1% and 14.9%. For the same compound, the viability, T/C (compound 10 µM) was 7.32% and 10.9%.

As for `CC1(C)CCC(CN2CCN(c3ccc(C(=O)NS(=O)(=O)c4ccc(NCC5CCOCC5)c([N+](=O)[O-])c4)c(Oc4cnc5[nH]ccc5c4)c3)CC2)=C(c2ccc(Cl)cc2)C1`, the 50% inhibitory concentration (IC50) was 8.67 µM and 8.19 µM. For the same compound, where the note is “compound 0.0316 µM”, the viability, T/C was 115% and 95.7%. The viability, T/C (compound 0.1 µM) is 89% and 88.2%. Further, the viability, T/C (compound 0.316 µM) was 99% and 101%. In addition, the viability, T/C (compound 1 µM) is 99.4% and 99.5%. Further, the viability, T/C (compound 3.16 µM) was 96.8% and 94.7%. Further, the viability, T/C (compound 10 µM) was 43.4% and 40.6%.
